Activity calls are given as the source filed them. The rule behind the calls is not given here.

The test system of the assay is CCHFV L protein vOTU protease domain (Crimean-Congo hemorrhagic fever virus). Description: CCHFV vOTU inhibition, late-stage follow-up, biochemical, fluorescence, Ub-AMC substrate, assay provider (AID 743500). The following applies: Recombinant vOTU, Ub-AMC cleavage fluorescence, active compounds read high.

`O=C1Cc2ccccc2C(=O)N1Cc1ccccc1`: the inhibition (at 1.31 µM) is 49.6%.
Take `O=C(c1ccco1)[C@@H]1[C@@H]2C(=O)N(c3ccc(Br)cc3)C(=O)[C@@H]2C2c3ccccc3C=CN21` (stereo partly drawn): the inhibition (at 11.01 µM) is 79.7%.
In the case of `COc1ccccc1NC(=O)COC(=O)c1ccc([N+](=O)[O-])s1`, the inhibition (at 35.07 µM) was 53.8%.
`CCc1cc[n+](C2=C(NS(=O)(=O)c3cccs3)C(=O)c3ccccc3C2=O)cc1`: the inhibition (at 14.16 µM) was 18.8% (inactive).
Regarding `CC1COCC(C)N1C1=C(Cl)C(=O)c2ccccc2C1=O` (stereo not drawn), the inhibition (at 14.67 µM) was 23.4%.
Turning to `Cc1ccc2c(c1C)-c1c(ccc(C)c1C)C(=O)C2=O`, the inhibition (at 18.9 µM) is 66.2%.
Take `COC(CNC(=O)c1ccc2c3c(onc13)-c1ccccc1C2=O)OC`: the inhibition (at 24.19 µM) was 51.7%.
Take `CC1CCCC(NC(=O)COC(=O)c2ccc([N+](=O)[O-])s2)C1C` (stereo not drawn): where the note is “at 31.32 µM”, the inhibition was 22.6%.
`NC1=C(Cl)C(=O)c2ccc(S(N)(=O)=O)cc2C1=O`: the inhibition (at 0.39 µM) is 63.1%.
For `O=C1C=C(Nc2ccccc2)c2ccccc2C1=O`, the inhibition (at 15.55 µM) is 80.2%.
As for `CCn1nc(/C=C/c2ccccc2)nc2c(=O)n(C)c(=O)nc1-2`, the inhibition (at 0.49 µM) is 99%.
As for `O=C(/C=C/c1ccc(O)cc1)c1ccc(NC2=C(N3CCCCC3)C(=O)c3ccccc3C2=O)cc1`, the inhibition (at 10.17 µM) was 41%.
Take `CCOC(=O)N=Nc1c2ccccc2c2nc3no[nH]c3nc12`: the inhibition (at 7.75 µM) is 26.4%.
As to `O=C(NC1=C(NC2CCS(=O)(=O)C2)C(=O)c2ccccc2C1=O)c1ccccc1` (stereo not drawn), the inhibition (at 14.2 µM) was 49.8%.
Turning to `O=C(COC(=O)c1ccc([N+](=O)[O-])s1)NCc1ccc(F)cc1`, where the note is “at 40.58 µM”, the inhibition is 41%.
In the case of `Cc1ccc(N2C(=O)[C@@H]3[C@H](C2=O)C2c4ccccc4C=CN2[C@@H]3C(=O)c2ccco2)cc1` (stereo partly drawn), the inhibition (at 5.2 µM) was 41.3%.
With `Cn1nc(-c2ccccn2)nc2c(=O)n(C)c(=O)nc1-2`, the inhibition (at 1.16 µM) was 94%.
Regarding `COc1cc(Br)c(C(=O)c2nccc3cc(OC)c(OC)cc23)cc1OC`, under “at 1.13 µM”, the inhibition is 19.1% (inactive).
For the compound `Nc1cc2c(cc1Br)[nH]c(=O)c1ccccc12`, for the setting “at 4.57 µM”, the inhibition is 12.7% (inactive).
In the case of `NS(=O)(=O)c1ccc(NC(=O)COC(=O)c2ccc([N+](=O)[O-])s2)cc1`, for the setting “at 29.01 µM”, the inhibition is 42.6%.
On to `COc1ccc2noc3c2c1C(=O)c1ccccc1-3`, for which, where the note is “at 6.28 µM”, the inhibition was 12.4% (inactive).
As to `O=C1Cc2ccccc2C(=O)N1`, the inhibition (at 0.6 µM) is 57.1%.
As to `Cc1ccc(NC2=CC(=O)C(=O)c3ccccc32)cc1`, the inhibition (at 12.24 µM) is 85.2%.
With `O=C(COC(=O)c1ccc([N+](=O)[O-])s1)Nc1ccc(F)cc1`, the inhibition (at 26.34 µM) is 45.3%.
Regarding `COc1cc(NC(=O)COC(=O)c2ccc([N+](=O)[O-])s2)cc(OC)c1OC`, the inhibition (at 21.72 µM) is 44.2%.
For `O=c1[nH]c(Nc2ccccc2)cc2cc(Br)ccc12`, for the setting “at 1.45 µM”, the inhibition was 15.8% (inactive).
Take `O=C(NC1=CC(=O)c2ccccc2C1=O)c1ccccc1`: the inhibition (at 12.37 µM) is 48.8%.
Regarding `NS(=O)(=O)c1ccc(NC2=CC(=O)C(=O)c3ccccc32)cc1`, under “at 11.51 µM”, the inhibition was 71.8%.
`CC1(C)C=C2C(=NN(c3ccccc3)C(N)=C2C#N)CO1`: the inhibition (at 23.49 µM) is 82.1%.
On to `O=C(COC(=O)c1ccc([N+](=O)[O-])s1)Nc1ncc(C(F)(F)F)cc1Cl`, for which the inhibition (at 27.79 µM) is 42.1%.
Regarding `O=C(OCc1nnc(-c2ccccc2)o1)c1ccc([N+](=O)[O-])s1`, the inhibition (at 26.04 µM) is 55.6%.
For the compound `COC1=C(N)C(=O)c2nc(C)ccc2C1=O`, where the note is “at 4.98 µM”, the inhibition is 71.9%.
Take `Cc1c(Cl)cnc(NC(=O)COC(=O)c2ccc([N+](=O)[O-])s2)c1Cl`: the inhibition (at 20.44 µM) was 55.3%.

(Values after PubChem BioAssay AID743500 (The Scripps Research Institute Molecular Screening Center, 2014).)
